Drawing on patent US9994555B2, “Chromenone inhibitors of monocarboxylate transporters” (THE SCRIPPS RESEARCH INSTITUTE, priority 2015, dated 2018), this text covers EC50 for twelve compounds.

The test system of this experiment is Raji (Burkitt's) lymphoma cells. The experiment is described as follows: MTT assay for 4-day viability of Raji (Burkitt's) lymphoma cells. Format: cell-based. The conditions noted are these: Homo sapiens, 96 h, Raji (Burkitt's) lymphoma cells highly expressing MCT1, estimated EC50 given as bin, read-out: approximate potency (EC50). The text has this: Specific Examples of compounds of the invention, with estimated EC50 values determined using an MTT assay for 4-day viability of Raji (Burkitt's) lymphoma cells, a cell line known to highly express MCT1 and to be sensitive to small molecule MCT inhibitors,^4 are shown in Table 8. Assay protocols follow those described in the literature.^4 Other assays that are not described here but that are standard in the field, such as an assay for competitive inhibition of transport of radiolabeled lactic acid, an MCT substrate, may also be useful in establishing mechanism of action of these compounds.
The term EC50 denotes the concentration at which the effect is half-maximal. As for `CC(C)c1cc(=O)c2c(-c3cc(CO)ccc3Cl)cc(OCc3cccc4ccccc34)cc2o1` [Example 39, 5-(2-chloro-5-(hydroxymethyl)phenyl)-2-isopropyl-7-(naphthalen-1-ylmethoxy)-4H-chromen-4-one], the EC50 was 1 to 10 µM.

Regarding `CC(C)c1cc(=O)c2c(-c3cc(CO)ccc3F)cc(OCc3cccc4ccccc34)cc2o1` [Example 40, 5-(2-fluoro-5-(hydroxymethyl)phenyl)-2-isopropyl-7-(naphthalen-1-ylmethoxy)-4H-chromen-4-one], the EC50 was 1 to 10 µM.

On to `CC(C)c1cc(=O)c2c(-c3cccc(CO)c3F)cc(OCc3cccc4ccccc34)cc2o1` [Example 41, 5-(2-fluoro-3-(hydroxymethyl)phenyl)-2-isopropyl-7-(naphthalen-1-ylmethoxy)-4H-chromen-4-one], for which the EC50 was not below 10 µM.

Turning to `CC(C)c1cc(=O)c2c(-c3cccc(CO)c3)cc(Oc3ccnc4ccccc34)cc2o1` [Example 42, 5-(3-(hydroxymethyl)phenyl)-2-isopropyl-7-(quinolin-4-yloxy)-4H-chromen-4-one], the EC50 is 0.1 to 1 µM.

As for `CC(C)c1cc(=O)c2c(-c3cccc(CO)c3)cc(OCc3cccc4ccccc34)cc2o1` [Example 43, 5-(3-(hydroxymethyl)phenyl)-2-isopropyl-7-(naphthalen-1-ylmethoxy)-4H-chromen-4-one], the EC50 is 0.1 to 1 µM.

With `CC(C)c1cc(=O)c2c(-c3ccccc3CO)cc(OCc3cccc4ccccc34)cc2o1` [Example 44], the EC50 was not below 10 µM.

As for `CC(C)c1cc(=O)c2c(-c3ccc(CO)cc3)cc(OCc3cccc4ccccc34)cc2o1` [Example 45], the EC50 was 1 to 10 µM.

On to `CC(C)c1cc(=O)c2c(NCCCCO)cc(OCc3cccc4ccccc34)cc2o1` [Example 46, 5-((4-hydroxybutyl)amino)-2-isopropyl-7-(naphthalen-1-ylmethoxy)-4H-chromen-4-one], for which the EC50 is 1 to 10 µM.

Consider `CC(C)c1cc(=O)c2c(NCCCCCO)cc(OCc3cccc4ccccc34)cc2o1` [Example 47, 5-((5-hydroxypentyl)amino)-2-isopropyl-7-(naphthalen-1-ylmethoxy)-4H-chromen-4-one], for which the EC50 was not below 10 µM.

Consider `CC(C)c1cc(=O)c2c(NCCCO)cc(OCc3cccc4ccccc34)cc2o1` [Example 48, 5-((3-hydroxypropyl)amino)-2-isopropyl-7-(naphthalen-1-ylmethoxy)-4H-chromen-4-one], for which the EC50 was 1 to 10 µM.

As to `CC(C)c1cc(=O)c2c(Nc3cccc(CO)c3)cc(OCc3cccc4ccccc34)cc2o1` [Example 49, 5-((3-(hydroxymethyl)phenyl)amino)-2-isopropyl-7-(naphthalen-1-ylmethoxy)-4H-chromen-4-one], the concentration for a half-maximal effect (EC50) was not below 10 µM.

With `CC(C)c1cc(=O)c2c(N3CCC(CO)CC3)cc(OCc3cccc4ccccc34)cc2o1` [Example 50, 5-(4-(hydroxymethyl)piperidin-1-yl)-2-isopropyl-7-(naphthalen-1-ylmethoxy)-4H-chromen-4-one], the EC50 is 1 to 10 µM.
